Common to all, as to assay type: in vivo
Test [1] deals with Beet Armyworm (Spodoptera exigua, LAPHEG). The experiment in a line: Bioassay on Beet Armyworm (BAW), 128-well diet tray assay. Put shortly:
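Percent mortality, averaged across eight replicate wells, was scored after five to seven days at 25° C. under a 14:10 light-dark cycle. Each well's diet carried 50 μg/cm^2 of the dried test molecule and held one to five second instar larvae.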

The test system of test [2] is Cabbage Looper (Trichoplusia ni, TRIPNI). The experiment in a line: Bioassay on Cabbage Looper (CL), 128-well diet tray assay. As to conditions: Trichoplusia ni. Put shortly:
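Second-instar larvae, one to five per well, were placed on artificial diet surface-treated with 50 μg/cm^2 test molecule applied in 90:10 acetone-water and dried, eight wells per molecule. Trays were covered, vented and held at 25° C., 14:10 light-dark for five to seven days; percent mortality per well was averaged.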

Test [3] has as its system Yellow Fever Mosquito (Aedes aegypti, AEDSAE). The experiment in a line: Bioassay on Yellow Fever Mosquito (YFM), 96-well plate larval assay. As to conditions: for YFM (Biological Results, rating): Species YFM (Yellow Fever Mosquito); for YFM rating: Yellow Fever Mosquito, 96-well plate larval assay. Put shortly: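 Each well was scored for mortality after 3 days at room temperature under a non-evaporative lid. Test molecules came from DMSO masters (4000 ppm stock) diluted with water/acetone 90:10 and dispensed into six replicate plates, which were then infested with roughly 1-day-old larvae in liver-powder water.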

Setting [4] is: Species BAW (Beet Armyworm), read-out: BAW (Biological Results, rating).
The mark [5] stands for this setting: Species CL (Cabbage Looper), read-out: CL (Biological Results, rating).
Setting [6] is: Beet Armyworm, 128-well diet tray assay, read-out: BAW rating.
[7] abbreviates: Cabbage Looper, 128-well diet tray assay, read-out: CL rating.

Like-named read-outs stand apart in the source and are kept apart here.

For `N#Cc1ccc(NC(=O)c2cc(NC(=O)[C@H]3[C@H](c4cc(Cl)cc(Cl)c4)C3(Cl)Cl)ccc2Cl)cc1F` (relative stereo) [F233, 2-Chloro-N-(4-cyano-3-fluorophenyl)-5-(trans-2,2-dichloro-3-(3,5-dichlorophenyl)cyclopropane-1-carboxamido)benzamide], the pest or weed control at 50 µg/cm2 in test [1] (setting [4]) and in test [2] (setting [5]) was 50 to 100% each time. Besides, the “YFM (Biological Results, rating)” value in test [3] is given as “A (80-100)”.

In the case of `COCC1(C(=O)Nc2ccc(NC(=O)c3cc(NC(=O)[C@H]4[C@H](c5cc(Cl)cc(Cl)c5)C4(Cl)Cl)ccc3Cl)cc2)CC1` (relative stereo) [PF161, trans-2-Chloro-5-(2,2-dichloro-3-(3,5-dichlorophenyl)cyclopropane-1-carboxamido)-N-(4-(1-(methoxymethyl)cyclopropane-1-carboxamido)phenyl)benzamide], the pest or weed control at 50 µg/cm2 in test [1] (setting [6]) and in test [2] (setting [7]) was 50 to 100% in each case. Further, the YFM rating entry in test [3] is “A (80-100)”.

As for `Nc1cc(F)ccc1NC(=O)c1cc(NC(=O)[C@H]2[C@H](c3ccc(Cl)c(Cl)c3)C2(Cl)Cl)ccc1Cl` [F576, N-(2-Amino-4-fluorophenyl)-2-chloro-5-((1R,3R)-2,2-dichloro-3-(3,4-dichlorophenyl)cyclopropane-1-carboxamido)benzamide], the pest or weed control at 50 µg/cm2 in test [1] (setting [6]) and in test [2] (setting [7]) was 50 to 100% each time. Also, the YFM rating entry in test [3] was “A (80-100)”.

Regarding `O=C(Nc1cnc2cc[nH]c2c1)c1cc(NC(=O)C2C(c3cc(Cl)cc(Cl)c3)C2(Cl)Cl)ccc1Cl` (stereo not drawn) [F437, 2-Chloro-5-(trans)-2,2-dichloro-3-(3,5-dichlorophenyl)cyclopropane-1-carboxamido)-N-(1H-pyrrolo[3,2-b]pyridin-6-yl)benzamide], the pest or weed control at 50 µg/cm2 in test [1] (setting [6]) and in test [2] (setting [7]) was 50 to 100% throughout. Also, the YFM rating result in test [3] is “B (More than 0-Less than 80)”.

Regarding `CN(C(=O)c1cc(NC(=O)[C@H]2[C@H](c3cc(Cl)c(Cl)cc3Cl)C2(Cl)Cl)ccc1Cl)c1ccc(F)cc1` (relative stereo) [F74, trans-2-Chloro-5-(2,2-dichloro-3-(2,4,5-trichlorophenyl)cyclopropane-1-carboxamido)-N-(4-fluorophenyl)-N-methylbenzamide], the pest or weed control at 50 µg/cm2 in test [1] (setting [4]) and in test [2] (setting [5]) was 50 to 100% each time. In test [3], the “YFM (Biological Results, rating)” value was “B (More than 0-Less than 80)”.

Consider `Cc1cc(N)ccc1NC(=O)c1cc(NC(=O)[C@H]2[C@H](c3ccc(Br)c(Cl)c3)C2(Cl)Cl)ccc1Cl` (relative stereo) [F324, N-(4-Amino-2-methylphenyl)-5-(trans-3-(4-bromo-3-chlorophenyl)-2,2-dichlorocyclopropane-1-carboxamido)-2-chlorobenzamide], for which the pest or weed control at 50 µg/cm2 in test [1] (setting [4]) and in test [2] (setting [5]) was 50 to 100% in each case. Besides, the “YFM (Biological Results, rating)” value in test [3] is recorded as “A (80-100)”.

For `CN(C(=O)c1cccc(NC(=O)[C@H]2[C@H](c3cc(Cl)c(Cl)c(Cl)c3)C2(Cl)Cl)c1F)c1ccccc1` (relative stereo) [F71, trans-3-(2,2-Dichloro-3-(3,4,5-trichlorophenyl)cyclopropane-1-carboxamido)-2-fluoro-N-methyl-N-phenylbenzamide], the pest or weed control at 50 µg/cm2 in test [1] (setting [4]) and in test [2] (setting [5]) was 50 to 100% each time. For the same compound, in test [3], the “YFM (Biological Results, rating)” value was “B (More than 0-Less than 80)”.

Regarding `Nc1cc(F)cc(F)c1NC(=O)c1cc(NC(=O)[C@H]2[C@H](c3cc(Cl)c(Cl)c(Cl)c3)C2(Cl)Cl)ccc1Cl` [F408, N-(2-Amino-4,6-difluorophenyl)-2-chloro-5-((1R,3R)-2,2-dichloro-3-(3,4,5-trichlorophenyl)cyclopropane-1-carboxamido)benzamide], the pest or weed control at 50 µg/cm2 in test [1] (setting [6]) and in test [2] (setting [7]) was 50 to 100% in each case. For the same compound, the YFM rating entry in test [3] is on record as “A (80-100)”.

In the case of `COc1ccc(NC(=O)c2cc(NC(=O)[C@H]3[C@H](c4cc(Cl)cc(Cl)c4)C3(Cl)Cl)ccc2Cl)c(Cl)n1` (relative stereo) [F552, 2-Chloro-N-(2-chloro-6-methoxypyridin-3-yl)-5-(trans-2,2-dichloro-3-(3,5-dichlorophenyl)cyclopropane-1-carboxamido)benzamide], the pest or weed control at 50 µg/cm2 in test [1] (setting [6]) and in test [2] (setting [7]) was 50 to 100% in each case. Moreover, the YFM rating entry in test [3] is recorded as “A (80-100)”.

`Nc1c(F)ccc(NC(=O)c2cc(NC(=O)[C@H]3[C@H](c4cc(Cl)cc(Cl)c4)C3(Cl)Cl)ccc2Cl)c1F` [F313, N-(3-Amino-2,4-difluorophenyl)-2-chloro-5-((1R,3R)-2,2-dichloro-3-(3,5-dichlorophenyl)cyclopropane-1-carboxamido)benzamide]: the pest or weed control at 50 µg/cm2 in test [1] (setting [4]) and in test [2] (setting [5]) was 50 to 100% each time. The “YFM (Biological Results, rating)” value in test [3] is “A (80-100)”.

On to `Cn1ccc2cc(NC(=O)c3cc(NC(=O)[C@H]4[C@H](c5cc(Cl)cc(Cl)c5)C4(Cl)Cl)ccc3Cl)cnc21` (relative stereo) [F464, 2-Chloro-5-(trans)-(2,2-dichloro-3-(3,5-dichlorophenyl)cyclopropane-1-carboxamido)-N-(1-methyl-1H-pyrrolo[2,3-b]pyridin-5-yl)benzamide], for which the pest or weed control at 50 µg/cm2 in test [1] (setting [6]) and in test [2] (setting [7]) was 50 to 100% in each case. Also, in test [3], the YFM rating result is reported as “A (80-100)”.

In the case of `COc1cc(NC(=O)c2cc(NC(=O)[C@H]3[C@H](c4cc(Cl)cc(Cl)c4)C3(Cl)Cl)ccc2Cl)c(Br)cn1` (relative stereo) [F548, N-(5-Bromo-2-methoxypyridin-4-yl)-2-chloro-5-(trans-2,2-dichloro-3-(3,5-dichlorophenyl)cyclopropane-1-carboxamido)benzamide], the pest or weed control at 50 µg/cm2 in test [1] (setting [6]) and in test [2] (setting [7]) was 50 to 100% each time. Moreover, in test [3], the YFM rating entry is on record as “A (80-100)”.

`C=Cc1cc([C@H]2[C@H](C(=O)Nc3ccc(Cl)c(C(=O)Nc4ccc(F)cc4)c3)C2(Cl)Cl)ccc1Cl` (relative stereo) [F349, 2-Chloro-5-(trans-2,2-dichloro-3-(4-chloro-3-vinylphenyl)cyclopropane-1-carboxamido)-N-(4-fluorophenyl)benzamide]: the pest or weed control at 50 µg/cm2 in test [1] (setting [4]) and in test [2] (setting [5]) was 50 to 100% throughout. The “YFM (Biological Results, rating)” value in test [3] is reported as “A (80-100)”.

Consider `O=C(Nc1ccc(F)cc1F)c1cc(NC(=O)[C@H]2[C@H](c3cc(Cl)cc(Cl)c3)C2(Cl)Cl)cc(Cl)c1Cl` (relative stereo) [F247, trans-2,3-Dichloro-5-(2,2-dichloro-3-(3,5-dichlorophenyl)cyclopropane-1-carboxamido)-N-(2,4-difluorophenyl)benzamide], for which the pest or weed control at 50 µg/cm2 in test [1] (setting [4]) and in test [2] (setting [5]) was 50 to 100% in each case. The “YFM (Biological Results, rating)” value in test [3] is on record as “A (80-100)”.

On to `CC(C)(C)c1cc2cc(NC(=O)c3cc(NC(=O)[C@H]4[C@H](c5cc(Cl)cc(Cl)c5)C4(Cl)Cl)ccc3Cl)ccc2[nH]1` (relative stereo) [F486, N-(2-(tert-Butyl)-1H-indol-5-yl)-2-chloro-5-(trans)-(2,2-dichloro-3-(3,5-dichlorophenyl)cyclopropane-1-carboxamido)benzamide], for which the pest or weed control at 50 µg/cm2 in test [1] (setting [6]) and in test [2] (setting [7]) was 50 to 100% throughout. Besides, in test [3], the YFM rating entry is listed as “A (80-100)”.

The values above are taken from US10219516B2, “Molecules having pesticidal utility, and intermediates, compositions, and processes, related thereto” (priority 2015, dated 2019).
